Laboratory results: patent US11357823B2, “Method for treating cerebral stroke” (Suzhou Yabao Pharmaceutical R&D Co., Ltd., priority 2019, dated 2022)
Where two headings read alike, the source gives them in different places.

Assays:
[1] = test system: acute cerebral ischemia-reperfusion injury in rats; format: in vivo; conditions: for Scope of cerebral infarction (%): Edaravone 6.0 mg/kg i.v., TTC staining 24 hours after ischemia, Mean ± SEM, model group 42.53 ± 3.27
cynomolgus monkeys = assay: Toxicity of A5 protein in single intravenous injection in cynomolgus monkeys; format: in vivo
Experimental: A single intravenous injection of A5 protein was used to observe the acute toxicity and its severity and main toxic target organs in cynomolgus monkeys. The dosage was 0 (blank adjuvant), 500, 1500 and 4500 μg/kg respectively. After the single intravenous injection, observe the clinical symptoms of the animals (including feces, appearance, respiration, nerve reaction, activity status, etc.) until the 15th day after the administration. After administration, the food intake was measured once a day and the body weight was measured once a week. The body temperature, blood pressure and electrocardiograph (ECG) of the animals were measured before and after administration on the day of administration, and again on the 1st, 7th and 15th day of administration. Hematology (including blood coagulation) and serum biochemical examination were carried out for all animals on the 1st, 7th and 15th day after administration, and urine examination was carried out on the 14th day after administration. On the 15th day after administration, the animals were dissected for macropathological examination, and if necessary, for histopathological examination. […] In this experiment, the maximum-tolerated dose (MTD) of cynomolgus monkeys was more than […].

[2] = test system: co-cultured spontaneously transformed endothelial cell line and purified rat astrocytes; assay: blood-brain barrier (BBB) model in vitro; format: cell-based; conditions: BBB model injured after stimulation, then treated with A5 protein
From the text: Blood brain barrier is composed of three components: brain microvascular endothelial cells, astrocytes and basement membrane. The damage of blood-brain barrier is one of the important pathology of stroke.
In the experiment, the blood-brain barrier model was established by co-culturing spontaneously transformed endothelial cell line and purified rat astrocytes. The blood-brain barrier (BBB) model in vitro was injured after stimulation, and then treated with A5 protein.

SD rats = assay: Toxicity of A5 protein in single intravenous injection in SD rats; format: in vivo
Experimental: In this study, A5 protein was injected intravenously once in SD rats to observe the acute toxicity, severity and main toxic target organs. The dosage was 0 (blank adjuvant), 1000, 3000 and 9000 μg/kg respectively. After the intravenous injection, the animal's posture, gait, reaction, nerve activity, appetite, fur, eyes, ears, mouth, nose, limbs, breath, feces and other clinical symptoms were observed continuously. After that, the recovery from toxic reaction was observed continuously until the 14th day after administration. The animals were dissected and examined for macropathology 15 days after administration. […] The maximum-tolerated dose (MTD) of single intravenous injection of A5 protein was more than […].

[3] = test system: primary purified microglia; assay: LPS-induced over activation of primary purified microglia; format: cell-based; conditions: LPS-stimulated primary microglia; MTT, cellular immunochemistry
From the text: Microglia plays an important role in the inflammatory process of the central nervous system. The moderate activation of microglia can protect neurons, but the over activated microglia will release a large number of neurotoxic factors, such as […], which will lead to the occurrence of neurodegenerative diseases. Lipopolysaccharide (LPS) can activate microglia, which leads to the over activation of microglia and the damage of neurons. A5 was used to observe the effect of LPS on the over activation of microglia.
During the experiment, LPS was used to stimulate the primary purified microglia as the control group, and A5 protein was added as the experimental group. For the above treatment, MTT method was used to detect cell viability, and cellular immunochemistry method was used to observe cell morphological changes. […] Therefore, A5 protein can be used to inhibit the over activation of immune cells in the brain, such as microglia.

primary cortical neurons = assay: Oxygen glucose deprivation (OGD) model with primary cortical neurons; format: cell-based; conditions: 8 hours anoxic culture, A5 in DMEM during 24 hours reoxygenation; CCK-8, flow cytometry
Experimental: Oxygen glucose deprivation (OGD) model is a stimulation model simulating ischemia/hypoxia at the cell level. By changing the cell culture conditions, such as putting the cells into the hypoxia box or into the sugar free medium, the damage of cells under the condition of ischemia/hypoxia is simulated.
OGD model was established with primary cortical neurons. The cells in the culture plate were washed twice with PBS, and then the glucose-free DMEM exchanged with 95% N2+5% CO2 for 30 minutes was added. Then the cells were quickly placed in 37° C., 94% N2+1% O2+5% CO2 hypoxia incubator. After 8 hours of anoxic culture, the corresponding DMEM medium (i.e. DMEM medium containing A5) was added, and then put the plate into a 37° C. 5% CO2 cell incubator for 24 hours of reoxygenation. After 24 hours of culture, morphological changes were observed under inverted microscope, cell survival rate was detected by CCK-8 colorimetry and apoptosis rate was detected by flow cytometry. At the same time, the treatment group of normoxia and normal glucose was set as the control group.

cortical neurons = assay: NMDA-induced excitotoxic damage on cortical neurons; format: cell-based, SD rats; conditions: A5 pretreatment then NMDA, compared with NMDA group; trypan blue, TUNEL, immunofluorescence
From the text: Example 5 studied the neuroprotective effect of A5 protein on NMDA (N-methyl-D-aspartate)—induced excitotoxic damage on cortical neurons in rats. NMDA can activate NMDA receptor to increase Ca^2+ content in brain tissue, and NOS is activated in a large amount, which leads to a series of physiological or pathological changes such as the synthesis of a large number of NO, causing damage to neurons in brain. In order to observe the neuroprotective effect of A5 protein on neuronal damage induced by excitotoxicity, the neuron was pretreated with A5 protein.
In the experiment, 17 day embryonic SD rats were selected and the cortical neurons were cultured. Then the neurons were divided into control group, NMDA group and A5 pretreatment group. The neurons in NMDA group were added with NMDA for exposure, and the neurons in A5 pretreatment group were incubated with A5 protein for a period of time, and then added with NMDA. For different treatment groups, trypan blue staining was used to evaluate cell viability, TUNEL staining was used to detect apoptosis cells and immunofluorescence cytochemistry was used to detect neuron morphology.

[4] = test system: rat model of hemorrhagic stroke; assay: rat model of hemorrhagic stroke by intracerebral injection of autologous arterial blood; format: in vivo; conditions: annexin A5 injection via caudal vein
Experimental: (§1) It was confirmed by the rat model of ischemia-reperfusion that the annexin A5 could reduce the area of cerebral infarction, improve the symptoms of neurological deficits and promote long-term motor recovery in rats. For example, a rat model of focal cerebral ischemia was established by light irradiation, and then annexin A5 was injected into the caudal vein. […] Take another example, the rat model of hemorrhagic stroke was established by intracerebral injection of autologous arterial blood, and then the rats were injected with annexin A5 injection via caudal vein.

[5] = test system: rat model of focal cerebral ischemia; assay: rat model of focal cerebral ischemia established by light irradiation; format: in vivo; conditions: annexin A5 injected into the caudal vein
Experimental: as §1

Row | Molecule | Scope of cerebral infarction (%) [1] | Scope of cerebral infarction (%) ([1]; listed as edaravone) | prothrombin time (PT), activated partial thromboplastin time (APTT) and thrombin time (TT) (cynomolgus monkeys; 1st day and 15th day after administration) | clinical symptoms, injection site, body weight, food intake, body temperature, blood pressure, ECG, urinalysis, serum biochemical and pathological examination (cynomolgus monkeys; single i.v. 500, 1500 and 4500 μg/kg, to day 15) | repair of damaged blood-brain barrier [2] | macropathological examination of tissues and organs (SD rats; 15 days after administration) | weight changes (SD rats; female and male animals in the administration group) | clinical symptoms (SD rats; single i.v. 1000, 3000 and 9000 μg/kg, observed to day 14) | bleeding risk ([1]; experimental group treated with annexin A5, MCAO rats) | over activation of microglia induced by LPS [3] | damage of neurons caused by oxygen glucose deprivation (primary cortical neurons) | damage of excitatory toxicity to neurons (cortical neurons) | area of cerebral infarction [4] | neurological deficit symptoms [4] | area of cerebral infarction [5] | neurological deficit symptoms [5]
1 | CC1=NN(c2ccccc2)C(=O)C1 [Edaravone] | 35.93 ± 3.94% | trend of reducing | – | – | – | – | – | – | – | – | – | – | – | – | – | –
2 | A5: recombinant human full-length annexin A5 expressed in E. coli, SEQ ID NO:1, 319 amino acids, N-terminal alanine not acetylated | – | – | no significant change | no significant changes | repair the damaged blood-brain barrier | no abnormality was found | normal | normal | no bleeding risk | inhibit the over activation of microglia induced by LPS | reduce the damage of neurons caused by oxygen glucose deprivation | reduce the damage of excitatory toxicity to neurons | decreased | significantly improved | decreased significantly | improved
